Assay results: paper PMC3617668, “In Vitro Antileishmanial, Trypanocidal, and Mammalian Cell Activities of Diverse N,N′ -Dihetaryl Substituted Diamines and Related Compounds” (Scientia Pharmaceutica, 2012)
Where “and” joins values, the source holds several entries; their conditions need not be identical. Identical values can stand only once.

What was measured:
[1] = system: L. (L.) infantum promastigotes; assay: In vitro activity on L. (L.) infantum promastigotes, counting viable parasites; assay type: cell-based, Leishmania (Leishmania) infantum; conditions: for IC50: Leishmania infantum, 72 h, 28 °C, read-out: L. (L) infantum promastigotes IC50 ± SD; for L. (L) infantum promastigotes SI: selectivity index CC50/IC50; for activity on L. (L.) infantum promastigotes, in words: free-living form
Method: (§1) Epimastigotes of T. cruzi and promastigotes forms of L. […] The inhibition of parasite growth was microscopically determined by counting viable (live) parasites in a haemocytometer using yellow eosin as vital dye; live parasites (uncolored) and dead (orange) were counted. All of the experiments were performed with parasites in their logarithmic phase of growth. […] Negative controls were used without the drug (culture medium alone) in each experiment. […] The data were calculated by linear regression using the software ([…]; GO Business Solution, Guildford, UK). The selectivity index (SI) was calculated dividing CC50/IC50. Each experiment was repeated twice and the values represent the results of one representative experiment. […] The analysis to determine the statistical differences in biological activity was performed using the analysis of variance (ANOVA) and the Bonferroni post-test. We also performed Student's t test for comparison between the two variables, using GraphPad Prism software version 5.03.

T. cruzi epimastigotes = assay: In vitro activity on T. cruzi epimastigotes, counting viable parasites; assay type: cell-based, Trypanosoma cruzi; conditions: for IC50: Trypanosoma cruzi, 72 h, 28 °C, read-out: T. cruzi epimastigotes IC50 ± SD; for T. cruzi epimastigotes SI: selectivity index CC50/IC50; for activity on T. cruzi epimastigotes, in words: free-living form
Method: as §1

[2] = Mammalian cell toxicity, MTT, THP-1 cells; assay type: cell-based; conditions: human, THP-1 cells transformed into adherent macrophages with PMA, 72 h, MTT; for CC50 at 72 h: read-out: Mammalian cells THP-1 CC50 ± SD
Method: (§2) Vero cells and THP-1 cells transformed into adherent macrophages with PMA in 96 microwell plates where they were treated with compounds (0-350 μM) during 72 h at 37 °C, 5% CO2-95% air mixture. The viability of the cells was evaluated by using the tetrazolium-dye (MTT) colorimetric method. After incubation of the cells with the MTT (5mg/mL) reagent for 4 hours, DMSO was added. The samples were read using an ELISA plate reader at a wavelength of 580 nm. The amount of color produced is directly proportional to the number of viable cells. The percentage of cytotoxicity was calculated by the equation: cytotoxicity (%) = (OD control group-OD treatment group)/OD control group × 100 [31]. […] The data were calculated by linear regression using the software ([…]; GO Business Solution, Guildford, UK). The selectivity index (SI) was calculated dividing CC50/IC50. Each experiment was repeated twice and the values represent the results of one representative experiment. […] The analysis to determine the statistical differences in biological activity was performed using the analysis of variance (ANOVA) and the Bonferroni post-test. We also performed Student's t test for comparison between the two variables, using GraphPad Prism software version 5.03.

[3] = Mammalian cell toxicity, MTT, Vero cells; assay type: cell-based; conditions: African green monkey, Vero cells, 72 h, MTT; for CC50 at 72 h: read-out: Mammalian cells Vero CC50 ± SD
Method: as §2

[4] = system: L. (L.) infantum intracellular amastigotes; assay: Intracellular amastigotes of L. (L.) infantum infecting THP-1 macrophages; assay type: cell-based, Leishmania (Leishmania) infantum; conditions: for IC90 / IC50: Leishmania infantum, THP-1 macrophages, 72 h; for IC50: 48.58% cells infected before treatment; for L. (L.) infantum intracellular amastigotes SI: selectivity index CC50/IC50
Method: (§3) For the amastigotes assays, adherent Vero cells or THP-1 macrophages (after transformation with 10 ng/mL PMA) were infected with tissue-derived trypomastigotes or stationary phase promastigotes, respectively, at a ratio of 10:1 and maintained in a 5% CO2-95% air mixture at 37 °C. After 24 h, infected cultures with >50% of infected cells were incubated with the compounds (from 3–300 μM) in a three-fold dilution series for 72 h. Drug activity was determined from the % of infected cells in treated and untreated cultures in fixed methanol and Giemsa stained preparations. Parasites’ assays were performed twice and each tested concentration was tested in triplicate.
(§4) Negative controls were used without the drug (culture medium alone) in each experiment.
(§5) The data were calculated by linear regression using the software (Msxlfit; GO Business Solution, Guildford, UK). The selectivity index (SI) was calculated dividing CC50/IC50. Each experiment was repeated twice and the values represent the results of one representative experiment. […] The analysis to determine the statistical differences in biological activity was performed using the analysis of variance (ANOVA) and the Bonferroni post-test. We also performed Student’s t test for comparison between the two variables, using GraphPad Prism software version 5.03. P values <0.05 were considered to be statistically significant.

[5] = system: L.(V.) panamensis intracellular amastigotes; assay: Intracellular amastigotes of L. (V.) panamensis in THP-1 macrophages; assay type: cell-based, Leishmania (Viannia) panamensis; conditions: for IC90 / IC50: THP-1 macrophages, 72 h; for IC50: 78.3% cells infected before treatment; for L.(V.) panamensis intracellular amastigotes SI: selectivity index CC50/IC50
Method: as §3, §4, §5

[6] = system: L. (L.) amazonensis intracellular amastigotes; assay: Intracellular amastigotes of L. (L.) amazonensis in THP-1 macrophages; assay type: cell-based, Leishmania (Leishmania) amazonensis; conditions: for IC90 / IC50: Leishmania amazonensis, THP-1 macrophages, 72 h; for IC50: 58.6% cells infected before treatment; for L. (L.) amazonensis intracellular amastigotes SI: selectivity index CC50/IC50
Method: as §3, §4, §5

[7] = system: T. cruzi intracellular amastigotes; assay: Intracellular amastigotes of T. cruzi in Vero cells; assay type: cell-based, Trypanosoma cruzi; conditions: for IC90 / IC50: Trypanosoma cruzi, Vero cells, 72 h; for IC50: 98.1% cells infected before treatment; for T. cruzi intracellular amastigotes SI: selectivity index CC50/IC50
Method: as §3, §4, §5

Vero cells = assay: Mammalian cell toxicity, MTT, Vero cells; assay type: cell-based
Method: as §2

THP-1 cells = assay: Mammalian cell toxicity, MTT, THP-1 cells; assay type: cell-based
Method: as §2

SMILES | IC50 [1] [µM] | L. (L) infantum promastigotes SI [1] | IC50 (T. cruzi epimastigotes) [µM] | T. cruzi epimastigotes SI (T. cruzi epimastigotes) | CC50 at 72 h [2] [µM] | CC50 at 72 h [3] [µM] | further results
O=C1CSC(c2cccnc2)N1CCCCN1C(=O)CSC1c1cccnc1 (stereo not drawn) [6j] | > 250 | >1.0 | 235 ± 3.06 | 0.32 | > 250 | 75.4 ± 1.8 | 
O=C1CSC(c2ccncc2)N1CCCCN1C(=O)CSC1c1ccncc1 (stereo not drawn) [6k] | > 250 | >1.0 | > 250 | >1.0 | > 250 | > 250 | 
O=C(CCl)NCCCNC(=O)CCl [7b] | 76.4 ± 1.05 | 2.07 | 1.01 ± 0.13 | 32.35 | 158 ± 4.53 | 32.7 ± 6.56 | 
O=C1CSC(c2ccccn2)N1CCCCN1C(=O)CSC1c1ccccn1 (stereo not drawn) [6i] | > 250 | >1.0 | > 250 | >1.0 | > 250 | > 250 | 
c1ccc(CNCCNCc2ccccc2)cc1 [5a, N^1,N^2-dibenzylethane-1,2-diamine] | 12.2 ± 2.45 | 19.58 | 2.54 ± 0.08 |  | 239 ± 17.9 | 75.3 ± 2.57 | activity on L. (L.) infantum promastigotes, in words [1]: active; activity on T. cruzi epimastigotes, in words (T. cruzi epimastigotes): active; IC90 [4]: 59.5 ± 2.78 µM; IC50 [4]: 25.4 ± 0.33 µM; L. (L.) infantum intracellular amastigotes SI [4]: 9.39 and 9; activity on intracellular amastigotes of L. panamensis, in words [5]: partially active (partially active with IC50 >25 μM and IC90 <100 μM); IC90 [5]: 88.1 ± 1.85 µM; IC50 [5]: 58.2 ± 3.23 µM; L.(V.) panamensis intracellular amastigotes SI [5]: 5; IC90 [6]: 131 ± 9.14 µM; IC50 [6]: 49.3 ± 4.7 µM; L. (L.) amazonensis intracellular amastigotes SI [6]: 6; IC90 [7]: > 123 µM; IC50 [7]: 131.2 ± 0.92 µM; T. cruzi intracellular amastigotes SI [7]: 0.48
O=C1CSC(c2cccnc2)N1CCN1C(=O)CSC1c1cccnc1 (stereo not drawn) [6g] | > 250 | >1.0 | > 250 | >1.0 | > 250 | > 250 | 
C[C@@H]1[C@H](O)[C@@H](C)/C=C/C=C/C=C/C=C/C=C/C=C/C=C/[C@H](O[C@@H]2O[C@H](C)[C@@H](O)[C@H](N)[C@@H]2O)C[C@@H]2O[C@](O)(C[C@@H](O)C[C@@H](O)[C@H](O)CC[C@@H](O)C[C@@H](O)CC(=O)O[C@H]1C)C[C@H](O)[C@H]2C(=O)O [AmB, Amphotericin B, reference compound] | 0.014 ± 0.001 | 948.57 |  |  | 13.3 ± 1.72 |  | IC90 [4]: 0.138 ± 0.023 µM; IC50 [4]: 0.045 ± 0.007 µM; L. (L.) infantum intracellular amastigotes SI [4]: 360; IC90 [5]: 0.2 ± 0.002 µM; IC50 [5]: 0.032 ± 0.002 µM; L.(V.) panamensis intracellular amastigotes SI [5]: 420; IC90 [6]: 0.2 ± 0.002 µM; IC50 [6]: 0.082 ± 0.002 µM; L. (L.) amazonensis intracellular amastigotes SI [6]: 616
O=C(CCl)NCCNC(=O)CCl [7a] | 176 ± 19 | >2.66 | 65.9 ± 5.54 | 0.38 | > 300 | 25.7 ± 1.22 | CC90 at 72 h [3]: 49.5 ± 1.87 µM; toxicity on Vero cells, in words (Vero cells): toxic
COc1ccc(CNCCCCNCc2ccc(OC)c(O)c2)cc1O [5e] | > 250 |  | 1.22 ± 0.08 |  | 248 | > 250 | 
c1ccc(CNCCCCNCc2ccccn2)nc1 [5i] | 28.8 ± 5.14 | >12.82 | > 250 | >0.35 | > 300 | 132 ± 12.3 | 
O=C1CSC(c2ccccn2)N1CCN1C(=O)CSC1c1ccccn1 (stereo not drawn) [6f] | 176 ± 16 | >1.46 | 161 ± 5.58 | >1.60 | > 250 | > 250 | 
c1ccc(CNCCCNCc2ccccc2)cc1 [5b] | 1.96 ± 0.07 | 86.29 | 5.35 ± 0.27 | 64.2 | 169 ± 29.8 | 343 ± 29.4 | 
O=C(CCl)NCCCCNC(=O)CCl [7c] | 132 ± 7.63 | 2.76 | 54.2 ± 1.16 | 0.68 | 366 | 37.1 ± 0.45 | CC90 at 72 h [3]: 77.6 ± 3.15 µM; toxicity on Vero cells, in words (Vero cells): toxic
CC1CS(=O)(=O)CCN1/N=C/c1ccc([N+](=O)[O-])o1 (stereo not drawn) [Nif, Nifurtimox, reference compound] |  |  | 2.71 ± 0.05 | 28.23 |  | 76.5 ± 3.2 | IC90 [7]: 10.2 ± 1.6 µM; IC50 [7]: 2.34 ± 0.83 µM; T. cruzi intracellular amastigotes SI [7]: 55
COc1ccc(CNCCNCc2ccc(OC)c(O)c2)cc1O [5d] | 40.2 ± 5.21 | >7.48 | 0.88 ± 0.06 |  | > 300 | > 300 | 
O=C1CSC(c2ccncc2)N1CCN1C(=O)CSC1c1ccncc1 (stereo not drawn) [6h] | > 250 | >1.0 | > 250 | >1.0 | > 250 | > 250 | 
c1cncc(CNCCCCNCc2cccnc2)c1 [5j] | 44.2 ± 10.5 | >8.36 | > 250 | >1 | > 300 | > 300 | 
O=C1CSC(c2ccccc2)N1CCCCN1C(=O)CSC1c1ccccc1 (stereo not drawn) [6c] | > 250 | >1.0 | > 250 | >1.01 | > 250 | > 250 | 
c1cc(CNCCNCc2ccncc2)ccn1 [5h] | 181 ± 1.89 | >2.28 | > 250 | >0.86 | > 413 | 356 ± 37.1 | 
O=C1CSC(c2ccccc2)N1CCN1C(=O)CSC1c1ccccc1 (stereo not drawn) [6a] | 136 ± 6.96 | >1.91 | 237 ± 12.1 | 0.72 | > 250 | 171 ± 3.77 | 
O=C(CCl)N(CCCCN(Cc1ccccc1)C(=O)CCl)Cc1ccccc1 [compound 8] | 3.91 ± 0.01 | 6.4 | 0.02 ± 0.004 |  | 25.1 ± 0.35 | > 250 | activity on L. (L.) infantum promastigotes, in words [1]: active; activity on T. cruzi epimastigotes, in words (T. cruzi epimastigotes): active; CC90 at 72 h [2]: > 208 µM; toxicity on THP-1 cells, in words (THP-1 cells): partially toxic
